The target in one assay is T1, Topoisomerase IV (Staphylococcus aureus, UniProt P0C1S7+Q2FYS4).
T1 construct: gene parC; with Topoisomerase IV subunit B (ParE); kDNA substrate
Description: Topo IV kDNA decatenation assay, agarose gel. Format: biochemical.

The target in a further assay is T2, DNA gyrase (Staphylococcus aureus, UniProt P0A0K8+P20831).
T2 construct: gene gyrA; with DNA gyrase subunit B (GyrB); plasmid DNA
The experiment in a line: S. aureus gyrase supercoiling assay, relaxed pBR322, agarose gel. Format: biochemical.

pIC50: −log10 of the molar value.

T2 sequence (P0A0K8 2-644): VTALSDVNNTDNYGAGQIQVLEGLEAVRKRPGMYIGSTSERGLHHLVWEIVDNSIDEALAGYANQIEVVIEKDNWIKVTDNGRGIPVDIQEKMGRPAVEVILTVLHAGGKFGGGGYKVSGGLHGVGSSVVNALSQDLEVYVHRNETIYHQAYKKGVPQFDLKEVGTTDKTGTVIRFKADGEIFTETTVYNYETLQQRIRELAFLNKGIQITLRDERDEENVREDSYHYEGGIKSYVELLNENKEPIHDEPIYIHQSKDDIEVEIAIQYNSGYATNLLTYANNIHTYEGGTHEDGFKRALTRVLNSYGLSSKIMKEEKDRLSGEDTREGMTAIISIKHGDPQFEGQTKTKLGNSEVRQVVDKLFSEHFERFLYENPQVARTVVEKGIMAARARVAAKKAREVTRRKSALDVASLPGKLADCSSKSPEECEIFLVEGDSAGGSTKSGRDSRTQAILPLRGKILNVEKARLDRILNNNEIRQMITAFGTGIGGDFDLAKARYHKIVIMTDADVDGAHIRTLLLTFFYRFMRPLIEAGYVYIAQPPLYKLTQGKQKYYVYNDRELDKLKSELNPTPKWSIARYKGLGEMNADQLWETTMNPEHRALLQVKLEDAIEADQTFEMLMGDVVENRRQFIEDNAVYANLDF
T2 sequence (P20831 whole entry): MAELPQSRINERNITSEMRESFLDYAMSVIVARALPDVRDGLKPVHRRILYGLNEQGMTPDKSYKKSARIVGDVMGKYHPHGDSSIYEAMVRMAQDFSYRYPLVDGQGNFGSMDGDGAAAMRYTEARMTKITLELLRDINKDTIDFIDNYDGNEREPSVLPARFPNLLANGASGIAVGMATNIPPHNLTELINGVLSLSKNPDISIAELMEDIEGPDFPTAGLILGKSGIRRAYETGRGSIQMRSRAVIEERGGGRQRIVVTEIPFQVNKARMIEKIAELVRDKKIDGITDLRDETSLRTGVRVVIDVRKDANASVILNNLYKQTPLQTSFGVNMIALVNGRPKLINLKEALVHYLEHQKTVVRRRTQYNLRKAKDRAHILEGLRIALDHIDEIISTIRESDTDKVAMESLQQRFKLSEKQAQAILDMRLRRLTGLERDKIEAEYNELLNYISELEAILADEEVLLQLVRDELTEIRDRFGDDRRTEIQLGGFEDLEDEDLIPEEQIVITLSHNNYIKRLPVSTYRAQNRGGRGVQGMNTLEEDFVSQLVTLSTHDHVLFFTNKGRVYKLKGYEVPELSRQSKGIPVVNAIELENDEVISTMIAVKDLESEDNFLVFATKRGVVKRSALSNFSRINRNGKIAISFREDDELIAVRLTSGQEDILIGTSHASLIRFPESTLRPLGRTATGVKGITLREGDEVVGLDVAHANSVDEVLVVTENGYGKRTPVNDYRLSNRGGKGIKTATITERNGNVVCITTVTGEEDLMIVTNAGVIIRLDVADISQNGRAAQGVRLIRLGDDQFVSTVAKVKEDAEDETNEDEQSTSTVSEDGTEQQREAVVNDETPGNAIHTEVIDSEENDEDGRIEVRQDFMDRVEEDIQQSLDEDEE
T1 sequence (Q2FYS4 whole entry): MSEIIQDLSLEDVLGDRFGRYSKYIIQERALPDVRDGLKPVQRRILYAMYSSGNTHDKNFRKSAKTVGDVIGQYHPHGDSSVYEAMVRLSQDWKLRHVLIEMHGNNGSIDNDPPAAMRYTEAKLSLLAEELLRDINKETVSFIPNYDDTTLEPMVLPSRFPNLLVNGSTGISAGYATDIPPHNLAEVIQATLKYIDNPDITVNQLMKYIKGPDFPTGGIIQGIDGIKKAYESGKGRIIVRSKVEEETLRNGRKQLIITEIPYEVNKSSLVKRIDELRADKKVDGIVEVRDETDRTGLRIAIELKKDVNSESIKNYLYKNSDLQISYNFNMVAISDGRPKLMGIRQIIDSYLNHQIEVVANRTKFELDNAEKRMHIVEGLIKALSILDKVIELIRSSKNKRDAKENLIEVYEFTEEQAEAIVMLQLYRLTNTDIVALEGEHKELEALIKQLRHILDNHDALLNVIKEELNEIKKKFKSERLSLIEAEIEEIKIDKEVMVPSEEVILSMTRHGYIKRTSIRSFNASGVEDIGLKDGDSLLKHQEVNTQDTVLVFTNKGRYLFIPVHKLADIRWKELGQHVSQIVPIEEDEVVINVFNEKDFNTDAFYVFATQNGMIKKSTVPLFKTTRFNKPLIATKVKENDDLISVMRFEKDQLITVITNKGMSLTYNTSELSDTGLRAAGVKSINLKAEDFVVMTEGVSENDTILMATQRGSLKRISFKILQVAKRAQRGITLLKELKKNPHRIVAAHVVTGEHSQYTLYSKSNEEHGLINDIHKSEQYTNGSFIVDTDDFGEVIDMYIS
T1 sequence (P0C1S7 whole entry): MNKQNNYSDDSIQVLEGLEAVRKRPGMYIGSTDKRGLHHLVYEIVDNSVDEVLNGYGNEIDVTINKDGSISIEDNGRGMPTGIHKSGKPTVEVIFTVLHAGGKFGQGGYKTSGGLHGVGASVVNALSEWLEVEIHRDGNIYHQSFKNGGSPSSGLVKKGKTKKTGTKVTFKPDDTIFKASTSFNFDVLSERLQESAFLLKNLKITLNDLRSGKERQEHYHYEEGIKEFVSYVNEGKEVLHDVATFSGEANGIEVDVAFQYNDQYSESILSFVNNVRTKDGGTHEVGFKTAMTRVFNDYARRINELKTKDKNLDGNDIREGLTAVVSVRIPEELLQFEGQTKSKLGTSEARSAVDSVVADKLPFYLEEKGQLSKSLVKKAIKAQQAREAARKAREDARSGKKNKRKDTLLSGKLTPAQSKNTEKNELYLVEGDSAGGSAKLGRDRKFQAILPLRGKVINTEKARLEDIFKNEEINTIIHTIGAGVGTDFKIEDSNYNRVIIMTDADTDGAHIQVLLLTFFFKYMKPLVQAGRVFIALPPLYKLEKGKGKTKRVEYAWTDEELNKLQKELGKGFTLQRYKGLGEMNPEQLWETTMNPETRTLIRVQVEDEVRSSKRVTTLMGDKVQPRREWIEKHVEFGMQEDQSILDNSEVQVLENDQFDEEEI

A word on the pIC50: it is the negative decadic logarithm of the IC50, by convention in mol/L. Read a high pIC50 as a small IC50. In the case of `O=C(CN1CCN(c2cc3c(cc2F)c(=O)c(C(=O)O)cn3C2CC2)CC1)Nc1ccc(Cl)cc1` [Cpx-Drv], the negative-log IC50 (pIC50) against Topoisomerase IV was 5.42; on DNA gyrase it was 4.87.

Source of the values: article PMC10573198, “Synthesis, Physicochemical Characterization using a Facile Validated HPLC Quantitation Analysis Method of 4-Chloro-phenylcarbamoyl-methyl Ciprofloxacin and Its Biological Investigations” (International Journal of Molecular Sciences, 2023).
